What was measured:
[1] = tested on: Cyperus spp., Echinochloa spp., Digitaria spp., Sagitaria spp. and Scirpus spp.; experiment: Action on harmful plants in rice (paddy rice conditions, visual scoring); type: in vivo, typical rice weeds (gramineous and broad-leaved); conditions: applied into the dammed water, visual scoring about three weeks after application
From the text: Transplanted and sown rice and also typical rice weeds (gramineous and broad-leaved) are cultivated in closed plastic pots in a greenhouse to the three-leaf stage (Echinochloa crus-galli 1.5-leaf) under paddy rice conditions (dammed height of water: 2-3 cm). This is followed by treatment with the compounds according to the invention. […] After this treatment, the test plants are set up in a greenhouse under optimum growth conditions and are maintained in this way throughout the test period.

[2] = tested on: Chenopodium spp., Papaver spp., Polygonum spp., Veronica spp. or Viola spp.; experiment: Post-emergence effect on weeds (greenhouse pot test, visual scoring); type: in vivo, monocotyledonous and dicotyledonous weeds; conditions: treated at three-leaf stage; visual scoring after about 3 to 4 weeks; application rate of 0.5 kg and less of active substance per hectare

C#Cc1cc(C(C)Nc2nc(C)nc(N)n2)ccc1F (stereo not drawn) [Product P2.309]
herbicidal activity against harmful plants which are typical for rice crops [1]: very good herbicidal activity | herbicidal activity post-emergence against harmful plants [2]: very good herbicidal activity

C#Cc1c(F)cc(C(C)Nc2nc(C)nc(N)n2)cc1F (stereo not drawn) [Product P2.352]
herbicidal activity against harmful plants which are typical for rice crops [1]: very good herbicidal activity | herbicidal activity post-emergence against harmful plants [2]: very good herbicidal activity

CC#Cc1cc(C(C)Nc2nc(C)nc(N)n2)ccc1F (stereo not drawn) [Product P2.384]
herbicidal activity against harmful plants which are typical for rice crops [1]: very good herbicidal activity | herbicidal activity post-emergence against harmful plants [2]: very good herbicidal activity

CC#Cc1c(F)cc(C(C)Nc2nc(C)nc(N)n2)cc1F (stereo not drawn) [Product P2.428]
herbicidal activity against harmful plants which are typical for rice crops [1]: very good herbicidal activity | herbicidal activity post-emergence against harmful plants [2]: very good herbicidal activity

Cc1nc(N)nc(NC(C)c2ccc(F)c(C3CC3)c2)n1 (stereo not drawn) [Product P2.916]
herbicidal activity against harmful plants which are typical for rice crops [1]: very good herbicidal activity | herbicidal activity post-emergence against harmful plants [2]: very good herbicidal activity

Cc1nc(N)nc(NC(C)c2cc(F)c(C3CC3)c(F)c2)n1 (stereo not drawn) [Product P2.960]
herbicidal activity against harmful plants which are typical for rice crops [1]: very good herbicidal activity | herbicidal activity post-emergence against harmful plants [2]: very good herbicidal activity

Cc1nc(N)nc(NC(C)c2cccc(C(F)=C(F)F)c2)n1 (stereo not drawn) [Product P2.1567]
herbicidal activity against harmful plants which are typical for rice crops [1]: very good herbicidal activity | herbicidal activity post-emergence against harmful plants [2]: very good herbicidal activity

Cc1nc(N)nc(NC(C)c2ccc(C(F)=C(F)F)cc2)n1 (stereo not drawn) [Product P2.1568]
herbicidal activity against harmful plants which are typical for rice crops [1]: very good herbicidal activity | herbicidal activity post-emergence against harmful plants [2]: very good herbicidal activity

C#Cc1cccc(C(C)Nc2nc(C)nc(N)n2)c1 (stereo not drawn) [Product P2.1579]
herbicidal activity against harmful plants which are typical for rice crops [1]: very good herbicidal activity | herbicidal activity post-emergence against harmful plants [2]: very good herbicidal activity

C#Cc1ccc(C(C)Nc2nc(C)nc(N)n2)cc1 (stereo not drawn) [Product P2.1580]
herbicidal activity against harmful plants which are typical for rice crops [1]: very good herbicidal activity | herbicidal activity post-emergence against harmful plants [2]: very good herbicidal activity

CC#Cc1cccc(C(C)Nc2nc(C)nc(N)n2)c1 (stereo not drawn) [Product P2.1582]
herbicidal activity against harmful plants which are typical for rice crops [1]: very good herbicidal activity | herbicidal activity post-emergence against harmful plants [2]: very good herbicidal activity

CC#Cc1ccc(C(C)Nc2nc(C)nc(N)n2)cc1 (stereo not drawn) [Product P2.1583]
herbicidal activity against harmful plants which are typical for rice crops [1]: very good herbicidal activity | herbicidal activity post-emergence against harmful plants [2]: very good herbicidal activity

Cc1nc(N)nc(NC(C)c2cccc(C3CC3)c2)n1 (stereo not drawn) [Product P2.1603]
herbicidal activity against harmful plants which are typical for rice crops [1]: very good herbicidal activity | herbicidal activity post-emergence against harmful plants [2]: very good herbicidal activity

Cc1nc(N)nc(NC(C)c2ccc(C3CC3)cc2)n1 (stereo not drawn) [Product P2.1604]
herbicidal activity against harmful plants which are typical for rice crops [1]: very good herbicidal activity | herbicidal activity post-emergence against harmful plants [2]: very good herbicidal activity

C#Cc1ccc(C(C)Nc2nc(C)nc(N)n2)cc1F (stereo not drawn) [Product P2.1620]
herbicidal activity against harmful plants which are typical for rice crops [1]: very good herbicidal activity | herbicidal activity post-emergence against harmful plants [2]: very good herbicidal activity

Cc1nc(N)nc(NC(c2ccc(F)c(C(F)=C(F)F)c2)C2CC2)n1 (stereo not drawn) [Product P4.5]
herbicidal activity against harmful plants which are typical for rice crops [1]: very good herbicidal activity | herbicidal activity post-emergence against harmful plants [2]: very good herbicidal activity

Cc1nc(N)nc(NC(c2cc(F)c(C(F)=C(F)F)c(F)c2)C2CC2)n1 (stereo not drawn) [Product P4.49]
herbicidal activity against harmful plants which are typical for rice crops [1]: very good herbicidal activity | herbicidal activity post-emergence against harmful plants [2]: very good herbicidal activity

C#Cc1cc(C(Nc2nc(C)nc(N)n2)C2CC2)ccc1F (stereo not drawn) [Product P4.309]
herbicidal activity against harmful plants which are typical for rice crops [1]: very good herbicidal activity | herbicidal activity post-emergence against harmful plants [2]: very good herbicidal activity

CC#Cc1cc(C(Nc2nc(C)nc(N)n2)C2CC2)ccc1F (stereo not drawn) [Product P4.384]
herbicidal activity against harmful plants which are typical for rice crops [1]: very good herbicidal activity | herbicidal activity post-emergence against harmful plants [2]: very good herbicidal activity

CC#Cc1c(F)cc(C(Nc2nc(C)nc(N)n2)C2CC2)cc1F (stereo not drawn) [Product P4.428]
herbicidal activity against harmful plants which are typical for rice crops [1]: very good herbicidal activity | herbicidal activity post-emergence against harmful plants [2]: very good herbicidal activity

Cc1nc(N)nc(NC(c2cccc(C(F)=C(F)F)c2)C2CC2)n1 (stereo not drawn) [Product P4.1567]
herbicidal activity against harmful plants which are typical for rice crops [1]: very good herbicidal activity | herbicidal activity post-emergence against harmful plants [2]: very good herbicidal activity

Cc1nc(N)nc(NC(c2ccc(C(F)=C(F)F)cc2)C2CC2)n1 (stereo not drawn) [Product P4.1568]
herbicidal activity against harmful plants which are typical for rice crops [1]: very good herbicidal activity | herbicidal activity post-emergence against harmful plants [2]: very good herbicidal activity

C#Cc1cccc(C(Nc2nc(C)nc(N)n2)C2CC2)c1 (stereo not drawn) [Product P4.1579]
herbicidal activity against harmful plants which are typical for rice crops [1]: very good herbicidal activity | herbicidal activity post-emergence against harmful plants [2]: very good herbicidal activity

C#Cc1ccc(C(Nc2nc(C)nc(N)n2)C2CC2)cc1 (stereo not drawn) [Product P4.1580]
herbicidal activity against harmful plants which are typical for rice crops [1]: very good herbicidal activity | herbicidal activity post-emergence against harmful plants [2]: very good herbicidal activity

CC#Cc1cccc(C(Nc2nc(C)nc(N)n2)C2CC2)c1 (stereo not drawn) [Product P4.1582]
herbicidal activity against harmful plants which are typical for rice crops [1]: very good herbicidal activity | herbicidal activity post-emergence against harmful plants [2]: very good herbicidal activity

CC#Cc1ccc(C(Nc2nc(C)nc(N)n2)C2CC2)cc1 (stereo not drawn) [Product P4.1583]
herbicidal activity against harmful plants which are typical for rice crops [1]: very good herbicidal activity | herbicidal activity post-emergence against harmful plants [2]: very good herbicidal activity

Cc1nc(N)nc(NC(c2cccc(C3CC3)c2)C2CC2)n1 (stereo not drawn) [Product P4.1603]
herbicidal activity against harmful plants which are typical for rice crops [1]: very good herbicidal activity | herbicidal activity post-emergence against harmful plants [2]: very good herbicidal activity

Cc1nc(N)nc(NC(c2ccc(C3CC3)cc2)C2CC2)n1 (stereo not drawn) [Product P4.1604]
herbicidal activity against harmful plants which are typical for rice crops [1]: very good herbicidal activity | herbicidal activity post-emergence against harmful plants [2]: very good herbicidal activity

CCc1nc(N)nc(NCc2ccc(F)c(C(F)=C(F)F)c2)n1 [Product P6.5]
herbicidal activity against harmful plants which are typical for rice crops [1]: very good herbicidal activity | herbicidal activity post-emergence against harmful plants [2]: very good herbicidal activity

CCc1nc(N)nc(NCc2cc(F)c(C(F)=C(F)F)c(F)c2)n1 [Product P6.49]
herbicidal activity against harmful plants which are typical for rice crops [1]: very good herbicidal activity | herbicidal activity post-emergence against harmful plants [2]: very good herbicidal activity

C#Cc1cc(CNc2nc(N)nc(CC)n2)ccc1F [Product P6.309]
herbicidal activity against harmful plants which are typical for rice crops [1]: very good herbicidal activity | herbicidal activity post-emergence against harmful plants [2]: very good herbicidal activity

C#Cc1c(F)cc(CNc2nc(N)nc(CC)n2)cc1F [Product P6.352]
herbicidal activity against harmful plants which are typical for rice crops [1]: very good herbicidal activity | herbicidal activity post-emergence against harmful plants [2]: very good herbicidal activity

CC#Cc1cc(CNc2nc(N)nc(CC)n2)ccc1F [Product P6.384]
herbicidal activity against harmful plants which are typical for rice crops [1]: very good herbicidal activity | herbicidal activity post-emergence against harmful plants [2]: very good herbicidal activity

CC#Cc1c(F)cc(CNc2nc(N)nc(CC)n2)cc1F [Product P6.428]
herbicidal activity against harmful plants which are typical for rice crops [1]: very good herbicidal activity | herbicidal activity post-emergence against harmful plants [2]: very good herbicidal activity

CCc1nc(N)nc(NCc2ccc(F)c(C3CC3)c2)n1 [Product P6.916]
herbicidal activity against harmful plants which are typical for rice crops [1]: very good herbicidal activity | herbicidal activity post-emergence against harmful plants [2]: very good herbicidal activity

CCc1nc(N)nc(NCc2cc(F)c(C3CC3)c(F)c2)n1 [Product P6.960]
herbicidal activity against harmful plants which are typical for rice crops [1]: very good herbicidal activity | herbicidal activity post-emergence against harmful plants [2]: very good herbicidal activity

CCc1nc(N)nc(NCc2cccc(C(F)=C(F)F)c2)n1 [Product P6.1567]
herbicidal activity against harmful plants which are typical for rice crops [1]: very good herbicidal activity | herbicidal activity post-emergence against harmful plants [2]: very good herbicidal activity

CCc1nc(N)nc(NCc2ccc(C(F)=C(F)F)cc2)n1 [Product P6.1568]
herbicidal activity against harmful plants which are typical for rice crops [1]: very good herbicidal activity | herbicidal activity post-emergence against harmful plants [2]: very good herbicidal activity

C#Cc1cccc(CNc2nc(N)nc(CC)n2)c1 [Product P6.1579]
herbicidal activity against harmful plants which are typical for rice crops [1]: very good herbicidal activity | herbicidal activity post-emergence against harmful plants [2]: very good herbicidal activity

C#Cc1ccc(CNc2nc(N)nc(CC)n2)cc1 [Product P6.1580]
herbicidal activity against harmful plants which are typical for rice crops [1]: very good herbicidal activity | herbicidal activity post-emergence against harmful plants [2]: very good herbicidal activity

CC#Cc1cccc(CNc2nc(N)nc(CC)n2)c1 [Product P6.1582]
herbicidal activity against harmful plants which are typical for rice crops [1]: very good herbicidal activity | herbicidal activity post-emergence against harmful plants [2]: very good herbicidal activity

CC#Cc1ccc(CNc2nc(N)nc(CC)n2)cc1 [Product P6.1583]
herbicidal activity against harmful plants which are typical for rice crops [1]: very good herbicidal activity | herbicidal activity post-emergence against harmful plants [2]: very good herbicidal activity

— patent US20030224942A1, “Alkylamino-1,3,5-triazines, processes for their preparation and their use as herbicides and plant growth regulators” (priority 2001, published 2003)
